Measured values reported in US20260034192A1 (University of Saskatchewan, priority 2022, published 2026).
Several values for one entry are separate records, joined by “and”; a condition that tells them apart may be missing. Equal values may be shown once. Marks after values point to notes of the source that are not given here. Square brackets hold non-standard residues; d marks the D form. Peptide text beside a SMILES is read from it. dPhe(4-Cl) = N[C@H](Cc1ccc(Cl)cc1)C(=O)O; d2Nal = N[C@H](Cc1ccc2ccccc2c1)C(=O)O; dCit = NC(=O)NCCC[C@@H](N)C(=O)O; d3Pal = N[C@H](Cc1cccnc1)C(=O)O

Tests used:
alpacas [1] = test: Alpaca Cetrorelix known stage study, two injections (Example 2); type: in vivo; conditions: for Wave emergence after the first Cetrorelix injection, average: 2 x 1.5 mg i/m, D5 and D10 groups combined
Excerpt: Methods: The specific objective of this experiment was to identify the pattern of growth for the dominant follicle in alpacas following treatment with a GnRH antagonist during two contrasting stages of the follicular wave. Based on data from natural spontaneous waves in alpacas, the dominant follicle is expected to be in early- to mid-growing phase (6 to 7 mm in diameter) on Day 5 and in mid-static phase (9 to 10 mm) on Day 10, so the treatments were planned to begin on these days.
The experimental design is illustrated FIG. 3. Transrectal ovarian ultrasonography was performed using an Esoate My Lab 5 ultrasound machine and a 7.5 linear array transducer attached to a custom-build rigid PVC pipe handle. The pipe was slightly curved at the transducer end to facilitate manipulation of the transducer. The transducer and the plastic handle were lubricated using methyl cellulose ultrasound gel and inserted slowly into the rectum after manual removal of the faeces. Reproductive track and ovaries were located and 10 to 20 second video clips of left and right ovary were recorded. Sketches of ovaries were drawn daily at the time of imaging to record location, size and number of follicles >2 mm in diameter as well as the size and location of the corpus luteum (if present). Ultrasound examinations were performed daily. The experimental data recording began when a spontaneous emergence of a new follicular wave detected in an animal (defined as Extant follicular wave). The day of wave emergence was designated as Day 0 and was defined retrospectively as the first detection of the dominant follicle at 4 or 5 mm size with concomitant increase in number of 3-4 mm follicles.
The first group of alpacas (Control group) were given no treatment, their ovaries were examined daily and blood samples were obtained daily from Day 4 to 12 to compare hormonal data from analogous days after Cetrorelix treatment. The second group of alpacas (D5 group) were given the first intramuscular injection of 1.5 mg (3 mL of 0.5 mg per mL solution) Cetrorelix acetate on Day 5 and a second injection of 3 mL on Day 6 (i.e., two i/m injections of 1.5 mg Cetrorelix at 24 hour interval for a total dose of 3 mg). The Cetrorelix dose administered was approximately equal to 20 ug/Kg body weight per day (considering average body weight of alpaca=75 kg) and based on the previous studies in llama and cattle (Silva et al, 2011, Ulker et al 2001). Alpacas in the third group (D10 group) were given the first intramuscular injection of 1.5 mg Cetrorelix acetate on Day 10 and a second injection of 1.5 mg on Day 11.
Cetrorelix treatments were given during the extant follicular wave. Changes in the size of the dominant follicle, largest subordinate follicle, and the number of ≥3 mm follicles were recorded daily from spontaneous emergence of extant follicular wave to Day 6 of next (post-treatment) follicular wave emergence. The inter-wave interval was determined based on duration between emergence of successive follicular waves.
Blood samples (5 to 8 mL) were collected in heparinized tubes (BD Vacutainer, BD Franklin Lakes, NJ, USA) via jugular venipuncture. Blood samples were kept on ice packs till centrifugation at 200 rpm (within 1 hr of collection) to obtain plasma samples that were immediately frozen at −20° C. until measurement of plasma LH. Plasma samples were obtained on Day 4 to 7 in Group 2 (that is, 1 day before to 1 day after Cetrorelix treatment) and on Day 9 to 12 in Group 3. For direct comparison, plasma samples were obtained from Day 4 to 12 in control group.

alpacas [2] = test: Alpaca random day study, single Cetrorelix injection (Example 3); type: in vivo; conditions: for Duration from treatment to next wave emergence, mean / Variance of duration from treatment to wave emergence (synchrony): alpacas, n = 15, single i/m 1.5 mg on random day of wave
Method: Methods: Ultrasonographic methods and follicular endpoint recording were similar to those described in Example 2. Follicular endpoints were obtained from alpacas (n=15) before and after treatment, therefore each animal acts as its own control. A fixed calendar day (July 16) was pre-assigned for Cetrorelix treatment. Daily transrectal ultrasonography was performed (n=15 alpacas) from May 31 to June 16. This examination period was used to record the variance in wave emergence from a fixed calendar date (May 31) without giving treatment (control period). Animals were at unknown/random day of the wave at the beginning of this 17-day time-window (i.e., longer than one natural inter-wave interval); therefore, all animals were expected to have at least one wave emergence encompassing this period. All alpacas were treated with a single intramuscular injection of 1.5 mg (3 mL) Cetrorelix acetate on July 16 and daily ultrasound examinations continued from the day of treatment until Day 3 after the next (post-treatment) wave emergence (treatment period). Synchrony of wave emergence was compared between the control period and the treatment period.
Statistical analyses: A Proc Mixed repeated measures analysis of variance (SAS version 9.4) was performed to compare serial data (follicle size and follicle numbers changes over days) and ANOVA or paired T-test were used for single-point numerical measurements. Count data were compared using Fisher's Exact test. Synchrony of the wave emergence was compared using Barlett's and Levene's tests of homogeneity of the variance.

[3] = after single injection of 0.25 mg in women; cited from earlier work
[4] = 2 x 1.5 mg i/m starting Day 5 (D 5)
[5] = 2 x 1.5 mg i/m starting Day 10 (D 10)
[6] = 2 x 1.5 mg i/m starting Day 10 (D 10), n = 6

Q: Which “Extant Wave: Total Number of Follicles on Day of Emergence” value (alpacas [1]; 1.5 mg Cetrorelix acetate i/m twice at 24 hr interval starting Day 5 (D 5)) does the source give for `CC(=O)N[C@H](Cc1ccc2ccccc2c1)C(=O)N[C@H](Cc1ccc(Cl)cc1)C(=O)N[C@H](Cc1cccnc1)C(=O)N[C@@H](CO)C(=O)N[C@@H](Cc1ccc(O)cc1)C(=O)N[C@H](CCCNC(N)=O)C(=O)N[C@@H](CC(C)C)C(=O)N[C@@H](CCCNC(=N)N)C(=O)N1CCC[C@H]1C(=O)N[C@H](C)C(N)=O` [Cetrorelix, N-acetyl-3-(2-naphthyl)-D-alanyl-4-chloro-D-phenylalanyl-3-(3-pyridyl)-D-alanyl-L-seryl-L-tyrosyl-D-citrullyl-L-leucyl-L-arginyl-L-prolyl-D-alaninamide] (Ac-[d2Nal][dPhe(4-Cl)][d3Pal]SY[dCit]LRP[dA]-NH2) here?
A: 10.71 ± 0.97

Q: And the “Extant Wave: Total Number of Follicles on Day of Emergence” value (alpacas [1]; 1.5 mg Cetrorelix acetate i/m twice at 24 hr interval starting Day 10 (D 10))?
A: 9.14 ± 1.39

Q: And the “Day of largest subordinate follicle maximum diameter” value (alpacas [1]; [4])?
A: 1.86 ± 1.01 days

Q: What about the “Degree of Synchrony: Days from treatment to next wave emergence” value (alpacas [1]; [4]) of the same compound?
A: 7.71 ± 0.36 days and 7.7 ± 0.36 days

Q: What about the “Dominant Follicle Diameter on Day 5 (mm)” value (alpacas [1]; [4]) of the same compound?
A: 6.64 ± 0.43 mm

Q: What about the “Dominant Follicle Diameter on Day 10 (mm)” value (alpacas [1]; [4]) of the same compound?
A: 5.50 ± 0.87^b mm

Q: And the “Dominant Follicle Diameter on Day of Cetrorelix Treatment (mm)” value (alpacas [1]; [4])?
A: 6.64 ± 0.43^a mm

Q: What about the “Dominant Follicle End of Growth (days)” value (alpacas [1]; [4]) of the same compound?
A: 4.86 ± 0.40^b days

Q: And the “Interwave Interval” value (alpacas [1]; [4])?
A: 12.7 ± 0.36 days and 12.7 days

Q: And the “Interwave Interval (days)” value (alpacas [1]; [4])?
A: 12.71 ± 0.36^b days

Q: And the “Largest Subordinate Follicle Diameter on Day 5 (mm)” value (alpacas [1]; [4])?
A: 3.21 ± 0.21 mm

Q: What about the “Largest Subordinate Follicle Diameter on Day 10 (mm)” value (alpacas [1]; [4]) of the same compound?
A: 2.71 ± 0.81 mm

Q: What about the “Largest Subordinate Follicle Diameter on Day of Cetrorelix Treatment (mm)” value (alpacas [1]; [4]) of the same compound?
A: 3.21 ± 0.21 mm

Q: And the “Largest Subordinate Follicle Maximum Diameter (mm)” value (alpacas [1]; [4])?
A: 4.57 ± 0.40 mm

Q: What about the “Next Wave: Total Number of Follicles on Day of Emergence” value (alpacas [1]; [4]) of the same compound?
A: 13.14 ± 1.47

Q: What about the “Day of dominant follicle maximum diameter” value (alpacas [1]; [5]) of the same compound?
A: 10.3±0.68 days and 10.29 ± 0.68^a days

Q: What about the “Day of largest subordinate follicle maximum diameter” value (alpacas [1]; [5]) of the same compound?
A: 6.00 ± 1.36 days

Q: And the “Dominant Follicle Diameter on Day 5 (mm)” value (alpacas [1]; [5])?
A: 9.71 ± 1.77 mm

Q: What about the “Dominant Follicle Diameter on Day 10 (mm)” value (alpacas [1]; [5]) of the same compound?
A: 10.36 ± 0.85^a mm

Q: What about the “Dominant Follicle Diameter on Day of Cetrorelix Treatment (mm)” value (alpacas [1]; [5]) of the same compound?
A: 10.36 ± 0.85^b mm

Q: And the “Dominant Follicle End of Growth (days)” value (alpacas [1]; [5])?
A: 8.00 ± 0.38^a days

Q: And the “Dominant Follicle Length of Static Phase” value (alpacas [1]; [5])?
A: 4.9 ± 0.40 days

Q: What about the “Dominant Follicle Length of Static Phase (days)” value (alpacas [1]; [5]) of the same compound?
A: 4.86 ± 0.40^ab days

Q: What about the “Dominant Follicle Maximum Diameter (mm)” value (alpacas [1]; [5]) of the same compound?
A: 10.9±0.70 mm and 10.93 ± 0.70^a mm

Q: And the “Dominant Follicle Onset of Regression” value (alpacas [1]; [5])?
A: 12.9 ± 0.34 days

Q: What about the “Dominant Follicle Onset of Regression (days)” value (alpacas [1]; [5]) of the same compound?
A: 12.86 ± 0.34^a days

Q: What about the “Largest Subordinate Follicle Diameter on Day 5 (mm)” value (alpacas [1]; [5]) of the same compound?
A: 4.21 ± 0.76 mm

Q: What about the “Largest Subordinate Follicle Diameter on Day 10 (mm)” value (alpacas [1]; [5]) of the same compound?
A: 4.00 ± 0.97 mm

Q: And the “Largest Subordinate Follicle Diameter on Day of Cetrorelix Treatment (mm)” value (alpacas [1]; [5])?
A: 4.00 ± 0.97 mm

Q: And the “Largest Subordinate Follicle Maximum Diameter (mm)” value (alpacas [1]; [5])?
A: 5.79 ± 1.02 mm

Q: What about the “Interwave Interval” value (alpacas [1]; [6]) of the same compound?
A: 17.71 ± 0.52 days and 18.17 days

Q: And the “Interwave Interval (days)” value (alpacas [1]; [6])?
A: 17.71 ± 0.52^c# days

Q: And the “Next Wave: Total Number of Follicles on Day of Emergence” value (alpacas [1]; [6])?
A: 12.14 ± 1.08

Q: What about the “Wave emergence after the first Cetrorelix injection, average” value (alpacas [1]) of the same compound?
A: 7.92 ± 0.24 days

Q: What about the “Wave emergence after the first Cetrorelix injection, average” value (alpacas [1]; listed as Cetrorelix acetate) of the same compound?
A: about 7.92±0.24 days

Q: What about the “Interval from first treatment to next wave emergence, range” value (alpacas [1]; D5 group) of the same compound?
A: 7 to 9 days

Q: And the “Interval from first treatment to next wave emergence, range” value (alpacas [1]; D10 group)?
A: 7 to 9 days

Q: And the “Duration from treatment to next wave emergence, mean” value (“Duration from treatment … mean” below) (alpacas [2])?
A: 5.33 ± 0.70 days and 5.33 days

Q: And the “Variance of duration from treatment to wave emergence (synchrony)” value (alpacas [2])?
A: 7.38

Q: What about the “Duration from treatment … mean” value (alpacas [2]; listed as Cetro) of the same compound?
A: 5.33 days

Q: And the “Variance of duration from treatment to wave emergence (synchrony)” value (alpacas [2]; listed as Cetro)?
A: 7.381

Q: And the “Duration from treatment … mean” value (alpacas [2]; listed as cetrorelix)?
A: about 5.33±0.70 days

Q: What about the “Duration from Treatment to Wave Emergence” value (alpacas [2]; individual alpacas, single i/m injection of 1.5 mg Cetrorelix on random day of wave) of the same compound?
A: 11 days and 3 days (2×) and 4 days (6×) and 9 days and 1 days and 6 days and 8 days (2×) and 7 days

Q: What about the Elimination half-life [3] of the same compound?
A: 5 h
